The text below walks through data of patent US8653278B2, “Isoform selective HDAC inhibitors” (Georgetown University, priority 2006, dated 2014).

For orientation: remaining activity means the share of the control activity or signal that is left under treatment.

Series [1] concerns T1, HDAC.
T1 construct: other: HDAC Fluor-Lys substrate; other: at concentrations of 1 μM
As to the kind of experiment: in vitro HDAC inhibitory activity, HDAC Fluor-Lys as substrate (BIOMOL). The class given is biochemical. As to conditions: for pIC50: read-out: IC50, concentration required to achieve 50% inhibition of HDAC activity. The method, then: The in vitro HDAC inhibitory activity of the synthesized compounds was determined by using HDAC Fluor-Lys as the substrate (BIOMOL). […] SAHA was used as a positive control.

For series [2], the system named is human normal fibroblasts (NHP-5). As to the kind of experiment: growth inhibition of normal cells NHP-5. The series is classed as cell-based. As to conditions: Fibroblast. The method, then: (§1) One of characteristics of the HDAC inhibitors relates to their ability to inhibit the growth of transformed cells. The compounds capable of modifying histones in the cell were tested for their biological effects.

For series [3], the system named is human normal primary skin fibroblasts (Hs-68). Put plainly: growth inhibition of normal cells Hs-68. As to conditions: Hs68. The series is classed as cell-based. The method, then:
as §1

The test system of series [4] is prostate cancer (PC-3), breast cancer (MCF-7), cervical cancer (HeLa), squamous carcinoma (SQ-20B). Put plainly: antiproliferative activity in cancer cell lines. The class given is cell-based. As to conditions: PC-3, MCF-7, HeLa. The method, then: as §1
For series [5], the system named is mouse model of Huntington's disease. As to conditions: cited from earlier work.
Another series relates to Plasmodium falciparum. As to conditions: human malaria parasite Plasmodium falciparum; cited from earlier work.
The next series has as its target T2, HDAC1 (Homo sapiens, UniProt Q13547).
T2 construct: endogenous in cells; host or cells: HeLa nuclear extract, immunoprecipitate
As to the kind of experiment: class I HDAC isoform activity, immunoprecipitate from HeLa nuclear extracts. The following applies: 0.5 μM of the test compound. The series is classed as biochemical. An excerpt: (§2) FIG. 10 depicts the effect of HDAC inhibitors, including selected compounds of the invention, on Class I HDAC isoform activities. Note that (a) denotes that HeLa nuclear extracts were used for immunoprecipitation (IP) with antibodies against HDAC 1-3; and (b) denotes that recombinant protein was used for HDAC 8. Note: TSA is trichostatin A.
(§3) To test whether the modified CAP region of the HDACIs is able to target specific HDAC isoform enzyme activity, the compounds were examined for class I HDAC isoform inhibitory activities using recombinant HDAC8 and immunoprecipitates of the other HDAC isoforms (HDAC 1, 2, 3) using nuclear extracts from HeLa cells. […] The data shown in FIG. 10 represent the HDAC inhibitory activity remaining after addition of 0.5 μM of the test compounds.

For the next series, the target named is T3, HDAC2 (Homo sapiens, UniProt Q92769).
T3 construct: endogenous in cells; host or cells: HeLa nuclear extract, immunoprecipitate
Described as above. The series is classed as biochemical. As to conditions: 0.5 μM of the test compound.
Source text: as §2, §3

In the next series the target is T4, HDAC3 (Homo sapiens, UniProt O15379).
T4 construct: endogenous in cells; host or cells: HeLa nuclear extract, immunoprecipitate
Described as above. The series is classed as biochemical. As to conditions: after addition of 0.5 μM of the test compound.
Source text: as §2, §3

For another series, the target named is T5, HDAC8 (Homo sapiens, UniProt Q9BY41).
T5 sequence (Q9BY41 1-377): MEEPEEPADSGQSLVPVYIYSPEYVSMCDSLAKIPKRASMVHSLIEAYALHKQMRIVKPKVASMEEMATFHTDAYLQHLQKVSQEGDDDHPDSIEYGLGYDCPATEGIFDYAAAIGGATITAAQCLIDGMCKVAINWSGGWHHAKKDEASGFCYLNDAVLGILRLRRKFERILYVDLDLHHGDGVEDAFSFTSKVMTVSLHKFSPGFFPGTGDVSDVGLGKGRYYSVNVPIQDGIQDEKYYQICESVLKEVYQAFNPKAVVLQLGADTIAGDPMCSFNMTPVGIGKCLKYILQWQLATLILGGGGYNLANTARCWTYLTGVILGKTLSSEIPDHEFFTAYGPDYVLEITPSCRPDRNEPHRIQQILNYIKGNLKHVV
Put plainly: class I HDAC isoform activity, recombinant protein. The series is classed as biochemical. As to conditions: after addition of 0.5 μM of the test compound.
Source text: as §2, §3

Another series concerns HDAC 1, 2, 3 and HDAC8. Put plainly: class I HDAC isoform panel, comparison across isoforms. The class given is biochemical. As to conditions: 0.5 μM of the test compound; HDAC 1, 2, 3, 8. An excerpt: FIG. 10 depicts the effect of HDAC inhibitors, including selected compounds of the invention, on Class I HDAC isoform activities. Note that (a) denotes that HeLa nuclear extracts were used for immunoprecipitation (IP) with antibodies against HDAC 1-3; and (b) denotes that recombinant protein was used for HDAC 8.

The subject of series [6] is HDAC. The following applies: read-out: reported IC50; literature value; cited from earlier work.

pIC50: −log10 of the molar value. “Also recorded” adds a separate entry of the source. Where two headings read alike, the source gives them in different places.

T4 sequence (O15379 whole entry): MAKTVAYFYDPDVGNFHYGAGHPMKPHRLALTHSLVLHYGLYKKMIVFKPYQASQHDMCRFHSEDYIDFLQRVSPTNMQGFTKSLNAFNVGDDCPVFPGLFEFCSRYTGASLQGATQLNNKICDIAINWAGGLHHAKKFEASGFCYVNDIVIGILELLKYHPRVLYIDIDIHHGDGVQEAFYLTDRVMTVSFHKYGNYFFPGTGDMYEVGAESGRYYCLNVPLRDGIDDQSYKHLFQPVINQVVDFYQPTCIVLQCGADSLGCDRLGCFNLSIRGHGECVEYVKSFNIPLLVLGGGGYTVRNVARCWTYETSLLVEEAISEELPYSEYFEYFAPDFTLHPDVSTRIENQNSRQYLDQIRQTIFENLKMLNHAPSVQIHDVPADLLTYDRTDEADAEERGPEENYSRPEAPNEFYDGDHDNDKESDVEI
T4 sequence (Q9Y618 whole entry partner): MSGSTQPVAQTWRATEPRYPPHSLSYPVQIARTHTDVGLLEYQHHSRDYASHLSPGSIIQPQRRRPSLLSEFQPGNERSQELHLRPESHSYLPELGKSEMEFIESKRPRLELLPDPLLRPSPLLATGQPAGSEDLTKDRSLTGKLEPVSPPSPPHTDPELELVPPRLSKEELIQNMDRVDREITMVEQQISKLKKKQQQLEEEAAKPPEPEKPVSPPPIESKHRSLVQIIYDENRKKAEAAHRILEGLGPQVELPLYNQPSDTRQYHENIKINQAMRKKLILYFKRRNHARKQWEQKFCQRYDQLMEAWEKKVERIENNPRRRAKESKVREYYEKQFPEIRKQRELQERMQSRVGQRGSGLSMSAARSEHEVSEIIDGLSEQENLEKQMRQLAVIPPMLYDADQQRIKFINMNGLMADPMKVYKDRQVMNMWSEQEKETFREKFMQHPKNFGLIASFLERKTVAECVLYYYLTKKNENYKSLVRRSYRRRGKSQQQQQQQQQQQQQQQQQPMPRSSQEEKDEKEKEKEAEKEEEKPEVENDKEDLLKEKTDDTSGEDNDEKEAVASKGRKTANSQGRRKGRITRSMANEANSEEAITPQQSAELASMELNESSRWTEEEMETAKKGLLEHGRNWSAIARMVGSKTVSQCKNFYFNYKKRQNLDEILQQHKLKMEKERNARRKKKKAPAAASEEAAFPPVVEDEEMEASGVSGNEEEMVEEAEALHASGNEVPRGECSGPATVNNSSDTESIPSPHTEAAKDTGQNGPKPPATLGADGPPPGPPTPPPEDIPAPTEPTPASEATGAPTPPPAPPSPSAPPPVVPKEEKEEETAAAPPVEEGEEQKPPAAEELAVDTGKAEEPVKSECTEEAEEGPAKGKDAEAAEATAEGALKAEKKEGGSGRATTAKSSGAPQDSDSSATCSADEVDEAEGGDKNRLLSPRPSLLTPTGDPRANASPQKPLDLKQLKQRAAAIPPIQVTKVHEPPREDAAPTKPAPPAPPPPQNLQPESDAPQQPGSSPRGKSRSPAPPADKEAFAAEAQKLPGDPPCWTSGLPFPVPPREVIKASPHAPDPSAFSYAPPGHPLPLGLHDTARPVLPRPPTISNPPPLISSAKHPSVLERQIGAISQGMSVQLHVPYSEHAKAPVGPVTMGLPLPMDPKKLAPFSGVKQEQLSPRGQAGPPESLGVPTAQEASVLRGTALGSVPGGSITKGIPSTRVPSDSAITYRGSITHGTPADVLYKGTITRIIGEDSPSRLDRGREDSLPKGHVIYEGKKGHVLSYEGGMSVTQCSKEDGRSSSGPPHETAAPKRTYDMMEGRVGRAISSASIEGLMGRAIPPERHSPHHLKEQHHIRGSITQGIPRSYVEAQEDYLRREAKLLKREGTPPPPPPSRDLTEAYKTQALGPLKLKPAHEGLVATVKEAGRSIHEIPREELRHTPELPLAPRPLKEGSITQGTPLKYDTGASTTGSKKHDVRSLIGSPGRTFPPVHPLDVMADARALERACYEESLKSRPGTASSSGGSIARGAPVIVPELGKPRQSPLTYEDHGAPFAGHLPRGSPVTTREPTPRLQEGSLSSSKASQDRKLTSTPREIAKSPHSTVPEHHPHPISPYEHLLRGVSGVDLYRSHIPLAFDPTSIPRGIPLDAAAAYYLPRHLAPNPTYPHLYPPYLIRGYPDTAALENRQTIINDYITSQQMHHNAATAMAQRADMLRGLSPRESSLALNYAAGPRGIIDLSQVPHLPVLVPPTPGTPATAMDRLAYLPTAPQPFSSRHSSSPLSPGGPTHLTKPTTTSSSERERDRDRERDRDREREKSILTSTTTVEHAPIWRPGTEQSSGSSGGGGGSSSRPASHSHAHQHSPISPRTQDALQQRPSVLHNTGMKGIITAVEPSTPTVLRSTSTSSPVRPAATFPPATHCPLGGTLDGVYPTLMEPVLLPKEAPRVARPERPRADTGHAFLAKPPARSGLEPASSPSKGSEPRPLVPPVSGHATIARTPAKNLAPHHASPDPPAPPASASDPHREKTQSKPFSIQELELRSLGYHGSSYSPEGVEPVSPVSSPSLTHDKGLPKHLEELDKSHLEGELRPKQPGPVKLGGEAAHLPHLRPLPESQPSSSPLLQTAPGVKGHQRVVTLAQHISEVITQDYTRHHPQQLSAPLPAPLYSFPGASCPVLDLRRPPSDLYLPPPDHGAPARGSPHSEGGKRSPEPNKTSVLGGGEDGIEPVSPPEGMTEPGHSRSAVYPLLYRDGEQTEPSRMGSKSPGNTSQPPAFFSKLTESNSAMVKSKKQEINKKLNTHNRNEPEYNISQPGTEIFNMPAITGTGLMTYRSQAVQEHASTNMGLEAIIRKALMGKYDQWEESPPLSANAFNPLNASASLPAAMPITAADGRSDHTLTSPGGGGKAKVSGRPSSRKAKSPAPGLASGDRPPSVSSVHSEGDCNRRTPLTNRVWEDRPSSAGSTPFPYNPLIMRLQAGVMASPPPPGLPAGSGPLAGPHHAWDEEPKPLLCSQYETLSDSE
T2 sequence (Q13547 whole entry): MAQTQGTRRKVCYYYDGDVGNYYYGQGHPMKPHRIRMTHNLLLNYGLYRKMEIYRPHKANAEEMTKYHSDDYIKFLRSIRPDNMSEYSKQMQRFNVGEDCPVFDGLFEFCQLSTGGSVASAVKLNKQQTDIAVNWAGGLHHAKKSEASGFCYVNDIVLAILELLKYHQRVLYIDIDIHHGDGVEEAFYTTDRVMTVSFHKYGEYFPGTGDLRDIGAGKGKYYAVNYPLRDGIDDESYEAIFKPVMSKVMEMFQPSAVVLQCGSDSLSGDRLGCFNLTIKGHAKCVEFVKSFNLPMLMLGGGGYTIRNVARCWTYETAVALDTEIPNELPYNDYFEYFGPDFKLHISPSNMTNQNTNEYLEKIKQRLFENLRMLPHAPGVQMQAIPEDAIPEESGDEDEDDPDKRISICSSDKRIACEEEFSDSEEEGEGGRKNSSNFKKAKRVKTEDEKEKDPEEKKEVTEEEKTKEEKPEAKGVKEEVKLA
T3 sequence (Q92769 whole entry): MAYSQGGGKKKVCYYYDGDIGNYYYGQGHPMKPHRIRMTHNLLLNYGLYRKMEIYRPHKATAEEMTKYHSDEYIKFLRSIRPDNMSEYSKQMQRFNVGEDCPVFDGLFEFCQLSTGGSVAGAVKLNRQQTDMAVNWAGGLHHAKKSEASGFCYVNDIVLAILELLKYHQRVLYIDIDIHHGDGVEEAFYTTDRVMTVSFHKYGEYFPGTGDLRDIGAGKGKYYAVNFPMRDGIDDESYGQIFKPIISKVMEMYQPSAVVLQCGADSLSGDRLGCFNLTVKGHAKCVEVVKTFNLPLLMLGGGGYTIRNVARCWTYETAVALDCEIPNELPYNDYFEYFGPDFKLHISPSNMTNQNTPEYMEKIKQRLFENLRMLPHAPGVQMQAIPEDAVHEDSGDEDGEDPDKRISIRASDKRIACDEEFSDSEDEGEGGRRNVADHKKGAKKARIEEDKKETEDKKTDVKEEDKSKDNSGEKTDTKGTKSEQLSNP

In the case of `NCC(=O)Nc1ccccc1-c1ccc(NC(=O)CCCCCCC(=O)NO)cc1` [7a, octanedioic acid [2′-(2-amino-acetylamino)-biphenyl-4-yl]-amide hydroxyamide], the pIC50 is 6.70 in the series on HDAC [1] (HDAC Fluor-Lys substrate), less than 3.30 in [2] and less than 3.30 in series [3].

Consider `NC(Cc1ccccc1)C(=O)Nc1ccccc1-c1ccc(NC(=O)CCCCCCC(=O)NO)cc1` (stereo not drawn) [7b, octanedioic acid [2′-(2-amino-3-phenyl-propionylamino)-biphenyl-4-yl]-amide hydroxyamide], for which the “HDAC inhibitory activity (in words)” value in the series with HDAC [1] is given as “approximately equipotent in their activity to SAHA”. Besides, in series [4], the “antiproliferative / growth inhibitory activity (in words)” value is given as “good growth inhibitory activity”. In addition, the values for the pIC50 in series [2] and in series [3] were 4.10 and less than 3.52, respectively.

With `O=C(CCCCCCC(=O)Nc1ccc(-c2ccccc2NC(=O)C2CCCN2)cc1)NO` (stereo not drawn) [7c, octanedioic acid hydroxyamide {2′-[(pyrrolidine-2-carbonyl)-amino]-biphenyl-4-yl}-amide], the “HDAC inhibitory activity (in words)” value in the series on HDAC [1] (HDAC Fluor-Lys substrate) is “approximately equipotent in their activity to SAHA”.

As to `NC(Cc1c[nH]c2ccccc12)C(=O)Nc1ccccc1-c1ccc(NC(=O)CCCCCCC(=O)NO)cc1` (stereo not drawn) [7d, octanedioic acid {2′-[2-amino-3-(1H-indol-3-yl)-propionylamino]-biphenyl-4-yl}-amide hydroxyamide], the figures for the pIC50 (in the series on HDAC [1]; in series [2]) were 7.52 and 4.00, respectively.

In the case of `NC(Cc1ccc(O)cc1)C(=O)Nc1ccccc1-c1ccc(NC(=O)CCCCCCC(=O)NO)cc1` (stereo not drawn) [7e, octanedioic acid {2′-[2-amino-3-(4-hydroxy-phenyl)-propionylamino]-biphenyl-4-yl}-amide hydroxyamide], in the series on HDAC [1] (HDAC Fluor-Lys substrate), the pIC50 was 7.30.

In the case of `NCC(=O)Nc1ccccc1-c1ccc(NC(=O)CCCCCNC(=O)CS)cc1` [10a, 6-(2-mercapto-acetylamino)-hexanoic acid [2′-(2-amino-acetylamino)-biphenyl-4-yl]-amide], the pIC50 with HDAC [1] is 5.15.

As for `NC(Cc1ccccc1)C(=O)Nc1ccccc1-c1ccc(NC(=O)CCCCCNC(=O)CS)cc1` (stereo not drawn) [10b, 6-(2-Mercapto-acetylamino)-hexanoic acid [2′-(2-amino-3-phenyl-propionylamino)-biphenyl-4-yl]-amide], the pIC50 in the series on HDAC [1] is 5.52.

For the compound `NC(Cc1c[nH]c2ccccc12)C(=O)Nc1ccccc1-c1ccc(NC(=O)CCCCCNC(=O)CS)cc1` (stereo not drawn) [10d, 6-(2-mercapto-acetylamino)-hexanoic acid {2′-[2-amino-3-(1H-indol-3-yl)-propionylamino]-biphenyl-4-yl}-amide], in the series on HDAC [1], the “HDAC inhibitory activity at a fixed concentration (in words)” value was “inactive”.

With `NC(Cc1ccc(O)cc1)C(=O)Nc1ccccc1-c1ccc(NC(=O)CCCCCNC(=O)CS)cc1` (stereo not drawn) [10e, 6-(2-mercapto-acetylamino)-hexanoic acid {2′-[2-amino-3-(4-hydroxy-phenyl)-propionylamino]-biphenyl-4-yl}-amide], the “HDAC inhibitory activity at a fixed concentration (in words)” value in the series on HDAC [1] (at concentrations of 1 μM) was “inactive”.

Take `O=C(CCCCCCC(=O)Nc1ccccc1)NO` [SAHA, suberoylanilide hydroxamic acid]: the motor impairment result in [5] (mouse model of Huntington's disease) is recorded as “improve dramatically the motor impairment”. Moreover, the brain penetration result in series [5] (mouse, in vivo) is recorded as “penetrate into the brain”.

Take `COc1ccc(CCN(C)CCCC(C#N)(c2ccc(OC)c(OC)c2)C(C)C)cc1OC` (stereo not drawn) [Verapamil]: the “reversal of chloroquine resistance” value in the series on Plasmodium falciparum is reported as “reverse chloroquine resistance”.

On to `Nc1ccccc1-c1csc(NC(=O)CCCCCCC(=O)NO)n1` [compound 16, octanedioic acid hydroxyamide [4-(2-amino-phenyl)-thiazol-2-yl]-amide], for which the “HDAC inhibitory activity (in words)” value with HDAC [1] (HDAC Fluor-Lys substrate) was “poorly active”.

On to `O=C(CCCCCCC(=O)Nc1nc(-c2ccccc2[N+](=O)[O-])cs1)NO` [compound 17, octanedioic acid hydroxyamide [4-(2-nitro-phenyl)-thiazol-2-yl]-amide], for which the pIC50 with HDAC [1] (HDAC Fluor-Lys substrate) was 7.30.

In the case of `O=C(CCCCCCC(=O)Nc1nc(-c2cccc([N+](=O)[O-])c2)cs1)NO` [compound 19, octanedioic acid hydroxyamide [4-(3-Nitro-phenyl)-thiazol-2-yl]-amide], in series [4], the “antiproliferative / growth inhibitory activity (in words)” value is on record as “submicromolar activity”. For the same compound, the “inhibition of HDAC1 activity (in words)” value on HDAC1 is reported as “strong tendency to inhibit”. Moreover, the “inhibition of HDAC2 activity (in words)” value against HDAC2 is “strong tendency to inhibit”. The remaining activity at 0.5 µM at HDAC3 and on HDAC8 was greater than 30% in each case.

In the case of `CCOC(=O)Nc1cccc(-c2csc(NC(=O)CCCCCCC(=O)NO)n2)c1` [compound 22, {3-[2-(7-hydroxycarbamoyl-heptanoylamino)-thiazol-4-yl]-phenyl}-carbamic acid ethyl ester], the pIC50 with HDAC [1] (HDAC Fluor-Lys substrate) was 8.30. Also, the “potency relative to trichostatin A” value in the series with HDAC [1] (IC50 compared with reported IC50 of trichostatin A) is given as “approximately two-fold”. Besides, the “antiproliferative / growth inhibitory activity (in words)” value in [4] is recorded as “submicromolar activity; also recorded: impressive antiproliferative activity”.

Regarding `Nc1cccc(-c2csc(NC(=O)CCCCCCC(=O)NO)n2)c1` [compound 23, octanedioic acid hydroxyamide [4-(3-amino-phenyl)-thiazol-2-yl]-amide], in the series with HDAC [1] (HDAC Fluor-Lys substrate), the pIC50 is 8.10. For the same compound, the “antiproliferative / growth inhibitory activity (in words)” value in series [4] was “submicromolar activity”. Moreover, the “inhibition of HDAC1 activity (in words)” value against HDAC1 is listed as “strong tendency to inhibit”. Further, at HDAC2, the “inhibition of HDAC2 activity (in words)” value is “strong tendency to inhibit”. The remaining activity at 0.5 µM at HDAC3 and on HDAC8 was greater than 30% each time.

In the case of trichostatin A, the “class I HDAC isoform inhibitory activity and selectivity (in words)” value in the series on HDAC 1, 2, 3 and HDAC8 was “more effective for inhibiting HDACs 1 and 2”. Besides, in the series on HDAC [6], the pIC50 is 7.92.
